# Test results: ChEMBL document CHEMBL1201862, “PubChem BioAssay data set” (2004)
#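 Each compound was tested at five concentrations against cells in 96-well plates for 48 hours. GI50 marks 50% less growth.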 Calls of active or inactive are those of the source. Rule as the data show it: active = GI50 up to about 1.1 µM and inactive = higher.
# Assays:
# Test in all cases: NCI-60 cell line screen, 48 h
# SR = test system: SR
# SK-OV-3 = test system: SK-OV-3
# K562 = test system: K562
# HOP-62 = test system: HOP-62
# MDA-N = test system: MDA-N
# TK-10 = test system: TK-10
# HCC 2998 = test system: HCC 2998
# SN12C = test system: SN12C
# RPMI-8226 = test system: RPMI-8226
# UACC-257 = test system: UACC-257
# IGROV-1 = test system: IGROV-1
# HL-60 = test system: HL-60
# PC-3 = test system: PC-3
# SNB-19 = test system: SNB-19
# BT-549 = test system: BT-549
# A498 = test system: A498
# NCI-H23 = test system: NCI-H23
# SF-539 = test system: SF-539
# MDA-MB-231 = test system: MDA-MB-231
# Hs-578T = test system: Hs-578T
SMILES,GI50 (SR),GI50 (SK-OV-3),GI50 (K562),GI50 (HOP-62),GI50 (MDA-N),GI50 (TK-10),GI50 (HCC 2998),GI50 (SN12C),GI50 (RPMI-8226),GI50 (UACC-257),GI50 (IGROV-1),GI50 (HL-60),GI50 (PC-3),GI50 (SNB-19),GI50 (BT-549),GI50 (A498),GI50 (NCI-H23),GI50 (SF-539),GI50 (MDA-MB-231),GI50 (Hs-578T)
COC(=O)C1(C(=O)OC)N=C(C)OC1/C=C/c1ccccc1 (stereo not drawn),> 100 µM (inactive),> 100 µM (inactive),> 100 µM (inactive),> 100 µM (inactive),> 100 µM (inactive),> 100 µM (inactive),> 100 µM (inactive),> 100 µM (inactive),38 µM (inactive),> 100 µM (inactive),> 100 µM (inactive),> 100 µM (inactive),> 100 µM (inactive),> 100 µM (inactive),> 100 µM (inactive),> 100 µM (inactive),> 100 µM (inactive),–,–,–
OC(/C(=N/c1ccccc1)c1ccccc1)c1ccccc1 (stereo not drawn),3.53 µM (inactive),22.2 µM (inactive),3.85 µM (inactive),17.1 µM (inactive),–,2.72 µM (inactive),–,10.7 µM (inactive),4.49 µM (inactive),2.17 µM (inactive),9.46 µM (inactive),2.94 µM (inactive),–,6.52 µM (inactive),2.68 µM (inactive),16.1 µM (inactive),4.4 µM (inactive),11.3 µM (inactive),13.8 µM (inactive),2.29 µM (inactive)
Nc1c(C(=O)c2ccc(Cl)cc2)[nH]c(NCc2ccccc2)c1C(=S)Nc1ccccc1,–,20.1 µM (inactive),2.08 µM (inactive),3.67 µM (inactive),1.73 µM (inactive),2.09 µM (inactive),0.372 µM (active),4.89 µM (inactive),1.79 µM (inactive),1.67 µM (inactive),2.37 µM (inactive),3.93 µM (inactive),5.31 µM (inactive),4.07 µM (inactive),2.49 µM (inactive),9.98 µM (inactive),2.39 µM (inactive),4.62 µM (inactive),1.9 µM (inactive),–
c1ccc(C(/C(=N/c2ccc(Cc3ccc(/N=C(\C(c4ccccc4)c4ccccc4)N4CC4)cc3)cc2)N2CC2)c2ccccc2)cc1,1.31 µM (inactive),< 0.01 µM (active),2.33 µM (inactive),12.8 µM (inactive),–,14.2 µM (inactive),10.1 µM (inactive),14.3 µM (inactive),3.65 µM (inactive),11.6 µM (inactive),0.942 µM (active),4.23 µM (inactive),3.83 µM (inactive),13.1 µM (inactive),10.5 µM (inactive),12.5 µM (inactive),10.5 µM (inactive),16.3 µM (inactive),12.2 µM (inactive),10.6 µM (inactive)
Oc1ccccc1/C=N/N1C(=S)N(c2ccccc2)C(=N\c2ccccc2)/C1=N/c1ccccc1,18.7 µM (inactive),13.9 µM (inactive),28.6 µM (inactive),9.35 µM (inactive),18.5 µM (inactive),8.28 µM (inactive),23.1 µM (inactive),12.4 µM (inactive),> 35.6 µM (inactive),25.1 µM (inactive),14 µM (inactive),30 µM (inactive),16.9 µM (inactive),6.47 µM (inactive),–,5.33 µM (inactive),11.1 µM (inactive),4.81 µM (inactive),10 µM (inactive),4.53 µM (inactive)
O=C1CCc2cc(Br)ccc2O1,83 µM (inactive),–,> 100 µM (inactive),22.4 µM (inactive),> 100 µM (inactive),45.7 µM (inactive),> 100 µM (inactive),92.9 µM (inactive),> 100 µM (inactive),> 100 µM (inactive),67.3 µM (inactive),> 100 µM (inactive),> 100 µM (inactive),25 µM (inactive),62.8 µM (inactive),37.8 µM (inactive),44.7 µM (inactive),32.9 µM (inactive),–,22.4 µM (inactive)
O=C1C2=Nc3ccccc3C(O)(C(=O)O)N2c2ccccc21 (stereo not drawn),14.6 µM (inactive),–,20.8 µM (inactive),25.4 µM (inactive),–,81.7 µM (inactive),45.2 µM (inactive),28.8 µM (inactive),6.68 µM (inactive),10.7 µM (inactive),37.7 µM (inactive),10.7 µM (inactive),6.61 µM (inactive),–,> 10 µM (inactive),29.5 µM (inactive),24.1 µM (inactive),26.4 µM (inactive),17.2 µM (inactive),27.7 µM (inactive)
Cc1ccc([N+](=O)[O-])c2c(NCC(O)CO)ccnc12 (stereo not drawn),95.1 µM (inactive),> 100 µM (inactive),50 µM (inactive),73.8 µM (inactive),42.3 µM (inactive),48.2 µM (inactive),31.8 µM (inactive),75.3 µM (inactive),84.9 µM (inactive),36.4 µM (inactive),43.2 µM (inactive),32.7 µM (inactive),70.3 µM (inactive),90.8 µM (inactive),47 µM (inactive),–,41.8 µM (inactive),19.3 µM (inactive),–,7.71 µM (inactive)
